Experiments:
Format in all cases: cell-based
P2X7 receptor [1] = target: T1, P2X7 receptor (Homo sapiens, UniProt Q99572); assay: Pore formation assay (Yo-Pro dye influx) in 1321N1 cells expressing P2X7, BzATP challenge; design: expressed in transfected cells; host or cells: human astrocytoma 1321N1 cells; details: 1321N1 cells expressing P2X7, 100 uM BzATP, Yo-Pro fluorescence after 90 minutes
T1 sequence (Q99572 1-595): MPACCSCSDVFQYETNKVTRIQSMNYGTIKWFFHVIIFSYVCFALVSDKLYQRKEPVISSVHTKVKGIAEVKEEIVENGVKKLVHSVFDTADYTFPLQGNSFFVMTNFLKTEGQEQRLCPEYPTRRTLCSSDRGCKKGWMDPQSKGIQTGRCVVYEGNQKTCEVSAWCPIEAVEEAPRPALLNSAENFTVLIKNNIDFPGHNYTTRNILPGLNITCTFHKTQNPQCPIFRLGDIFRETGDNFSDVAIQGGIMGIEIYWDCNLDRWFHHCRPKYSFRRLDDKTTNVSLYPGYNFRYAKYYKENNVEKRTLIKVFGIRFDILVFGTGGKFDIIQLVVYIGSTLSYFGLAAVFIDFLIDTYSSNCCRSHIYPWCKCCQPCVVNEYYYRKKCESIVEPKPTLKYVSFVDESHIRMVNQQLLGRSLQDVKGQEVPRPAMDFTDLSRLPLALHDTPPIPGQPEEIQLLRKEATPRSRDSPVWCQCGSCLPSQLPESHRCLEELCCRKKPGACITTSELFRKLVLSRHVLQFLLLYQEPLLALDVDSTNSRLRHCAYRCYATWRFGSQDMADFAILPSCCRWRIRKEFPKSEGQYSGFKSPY
Description: Inhibition of Yo-Pro fluorescent dye influx into the cells following P2X7 receptor activation provides a read-out of compounds potency in inhibition of pore formation activity of the P2X7 receptor.
Assay was conducted essentially as in Alcaraz et al. Human astrocytoma (1321N1) cells expressing P2X7 were seeded in 96-well plates at a density of 200,000 cells/well in assay buffer consisting of 5 mM KCl, 140 mM KAspartate, 10 mM glucose, 10 mM Hepes pH 7.0, 10 mM N-methyl-D-glucoseamine, 1 mM EDTA and 1 uM Yo-Pro dye. Cells were exposed to serially diluted concentrations of compound and then challenged with 100 uM BzATP. Yo-Pro fluorescence was measured after 90 minutes. Inhibition of Yo-Pro dependent fluorescence indicates the assayed compound is an antagonist of the P2X7 receptor.

P2X7 receptor [2] = target: T1, P2X7 receptor; assay: Calcium signalling (Fluo-3, FLIPR) in 1321N1 cells expressing P2X7, BzATP challenge; design: expressed in transfected cells; host or cells: human astrocytoma 1321N1 cells; details: human astrocytoma 1321N1 cells expressing P2X7, 30 uM BzATP; read-out: Inhibition of Ca^+2 signaling IC50
Description: Inhibition of Ca^2+ influx into the cell by antagonists of the P2X7 receptor measures inhibition of the ion channel activity of the P2X7 receptor.
Human astrocytoma (1321N1) cells expressing P2X7 were grown to confluency in 96-well plates. Cells were loaded with a solution of Fluo-3 AM (2.5 μM final concentration) in an assay buffer consisting of 10 mM KCl, 118 mM NaCl, 0.25 mM CaCl2, 1 mM MgCl2, 20 mM HEPES, 10 mM glucose, pH 7.4. After a 60-minute incubation with Fluo-3 AM at 25° C., cells were washed and stimulated with serially diluted concentrations of compound and then challenged with 30 uM BzATP. Calcium fluorescence was measured using the FLIPR 89 (Molecular Devices Corp., Sunnyvale, Calif.) and results were calculated using Prism Graph Pad version 3.03 (San Diego, Calif.). Inhibition of calcium dependent fluorescence indicates the assayed compound is an antagonist of the P2X7 receptor.

P2X7 receptor [3] = target: T1, P2X7 receptor; assay: IL-1β secretion assay in LPS-primed human monocytes stimulated with ATP; design: monocytes were selected by adherence to the tissue culture plastic; endogenous in cells; host or cells: LPS-primed adherent monocytes from human peripheral blood; details: human peripheral blood monocytes, 1 ng/mL LPS, 1 mM ATP, 30 min; read-out: IL1β inhibition IC50
Description: Inhibition of IL-1β release by antagonists of the P2X7 receptor is a model of ameliorating inflammatory condition. This assay is an in vitro assay of cytokine secretion that can be used to evaluate the ability of compounds of this invention of Formula I to inhibit cytokine secretion, as the secretion of cytokines contributes to the inflammation in asthma, COPD and other pulmonary diseases, as well as in RA, IBD and neuropathic pain.
Peripheral blood from healthy human volunteers was collected in an acid-citrate-dextrose (ACD) buffer to prevent clotting, layered over a Ficoll-Paque gradient (1:1), and centrifuged for 45 minutes at 1200 rpm. The interface between the plasma layer and the Ficoll layer (buffy coat) was then diluted in RPMI 1640/10% heat inactivated FBS and centrifuged for 10 minutes at 1500 rpm. The resultant pellet was re-suspended in media containing 1 ng/mL lipopolysaccharide (LPS) and plated at a density of 500,000 cells/mL. After a 3 hour incubation (37° C., 5% CO2, humidified air) monocytes were selected by adherence to the tissue culture plastic by washing wells with media. Following the media wash, cells were incubated for 2 minutes with the antagonists prior to the addition of 1 mM ATP. Cells were allowed to incubate with compounds for 30 minutes at 37° C. after which the supernatant was removed for immediate determination of IL-1β concentration. The concentration of IL-1β in cell supernatants was measured using the Bio-Plex (Bio-Rad) system according to manufacture's instructions and inhibition constants were calculated using Prism Graph Pad version 3.03 (San Diego, Calif.). IC50 values represent the concentrations of antagonist compounds necessary to inhibit 50% of the activity (calcium dependent fluorescence or IL-1β concentration) elicited by a given concentration of ATP.

Compound | IC50 (P2X7 receptor [1]) [nM] | IC50 (P2X7 receptor [2]) [nM] | IC50 (P2X7 receptor [3]) [nM]
O=C(Nc1ncnc2c1ncn2[C@@H]1O[C@H](CO)C2OC3(CCCCC3)O[C@@H]21)NC1CCCCC1 (stereo partly drawn) [Compound 39, 6-(cyclohexylurea)adenosine 2′,3′-cyclohexyl ketal] | 346 | 477 | 65
O=C(Nc1ncnc2c1ncn2[C@@H]1O[C@H](C(=O)NCCO)C2OC3(CCCCC3)O[C@@H]21)NC1CCCCC1 (stereo partly drawn) [Compound 44, 6-(cyclohexylurea)adenosine 2′,3′-cyclohexyl ketal 5′-(2-hydroxy)ethyl carboxamide] | 257 | 404 | 58

Now those with a lower IC50 (P2X7 receptor [1]), led by results:

IC50 (P2X7 receptor [1]) [nM] | IC50 (P2X7 receptor [2]) [nM] | IC50 (P2X7 receptor [3]) [nM] | Compound
234 | 852 | 99 | CCNC(=O)OC[C@H]1O[C@@H](n2cnc3c(NC(=O)NC4CCCCC4)ncnc32)[C@H]2OC3(CCCCC3)OC12 (stereo partly drawn) [Compound 46]
152 | 295 | 69 | CCNC(=O)[C@H]1O[C@@H](n2cnc3c(NC(=O)NC4CCCCC4)ncnc32)[C@H]2OC3(CCCCC3)OC12 (stereo partly drawn) [Compound 43, 6-(cyclohexylurea)adenosine 2′,3′-cyclohexyl ketal 5′-ethyl carboxamide]
52 | 597 | 98 | O=C(Nc1ncnc2c1ncn2[C@@H]1O[C@H](C(=O)O)C2OC3(CCCCC3)O[C@@H]21)NC12CC3CC(CC(C3)C1)C2 (stereo partly drawn) [Compound 38]

From US20100160250A1, “METHOD FOR TREATING INFLAMMATORY CONDITIONS” (priority 2008, published 2010)
